Measured values: ChEMBL document CHEMBL1641534, “Synthesis and antibacterial activity study of a novel class of cationic anthraquinone analogs” (Bioorg Med Chem, 2011)
Values after ≈ are worked out from the molar mass of the structure shown. Active and inactive are the calls of the source. No cut-off for these calls is given here.

Columns and labels:
Staphylococcus aureus [1] = experiment: microbe, parasite or virus in culture; format: functional; details: ATCC 33591
Description: (§1) Antibacterial activity against methicillin-resistant Staphylococcus aureus ATCC 33591 after 12 to 18 hrs by twofold dilution method

Staphylococcus aureus [2] = experiment: microbe, parasite or virus in culture; format: functional; details: ATCC 25923
Description: (§2) Antibacterial activity against Staphylococcus aureus ATCC 25923 after 12 to 18 hrs by twofold dilution method

[3] = system: Mycolicibacterium smegmatis; experiment: Antibacterial activity against Mycobacterium smegmatis ATCC 14468 after 12 to 18 hrs by twofold dilution method; format: functional
Pseudomonas aeruginosa [4] = experiment: Antibacterial activity against Pseudomonas aeruginosa ATCC 27853 after 12 to 18 hrs by twofold dilution method; format: functional
Enterococcus faecalis [5] = experiment: Antibacterial activity against Enterococcus faecalis ATCC 29212 after 12 to 18 hrs by twofold dilution method; format: functional
Escherichia coli [6] = experiment: Antibacterial activity against Escherichia coli ATCC 25922 after 12 to 18 hrs by twofold dilution method; format: functional
Enterococcus faecalis [7] = experiment: Antibacterial activity against vancomycin-resistant Enterococcus faecalis ATCC 51299 after 12 to 18 hrs by twofold dilution method; format: functional
Klebsiella pneumoniae [8] = experiment: Antibacterial activity against Klebsiella pneumoniae ATCC 13883 after 12 to 18 hrs by twofold dilution method; format: functional
Escherichia coli [9] = experiment: Antibacterial activity against Escherichia coli ATCC 25922 by agar diffusion assay; format: functional, organism-based
Staphylococcus aureus [10] = experiment: Antibacterial activity against Staphylococcus aureus ATCC 25923 by agar diffusion assay; format: functional, organism-based
[11] = Solubility of the compound in aqueous medium; format: physicochemical; details: buffer
Staphylococcus aureus [12] = details: ATCC 25923
Description: as §2

Escherichia coli [13] = details: ATCC 25922
Enterococcus faecalis [14] = details: ATCC 29212
Staphylococcus aureus [15] = details: ATCC 33591
Description: as §1

Klebsiella pneumoniae [16] = details: ATCC 13883
Pseudomonas aeruginosa [17] = details: ATCC 27853
[18] = system: Mycolicibacterium smegmatis; details: ATCC 14468
Enterococcus faecalis [19] = details: ATCC 51299

Compound | MIC (Staphylococcus aureus [1]) | MIC (Staphylococcus aureus [2]) | MIC [3] | MIC (Pseudomonas aeruginosa [4]) | MIC (Enterococcus faecalis [5]) | MIC (Escherichia coli [6]) | MIC (Enterococcus faecalis [7]) | MIC (Klebsiella pneumoniae [8]) | Activity (Escherichia coli [9]) | Activity (Staphylococcus aureus [10]) | solubility [11] | other results
CCCCCCCCCCCCCCCC[N+](C)(C)Cc1ccccc1.[Cl-] [CETALKONIUM CHLORIDE] | 1 µg/mL | 2 µg/mL |  |  |  |  |  |  |  |  |  | 
CCCCn1n[n+](C)c2c1C(=O)c1ccccc1C2=O.[Cl-] | 1 µg/mL | 2 µg/mL | 16 µg/mL | ≥ 250 µg/mL | ≥ 250 µg/mL | 16 µg/mL | ≥ 250 µg/mL | 32 µg/mL |  |  |  | 
NC[C@@H]1O[C@H](O[C@H]2[C@@H](O)[C@H](O[C@@H]3[C@@H](O)[C@H](N)C[C@H](N)[C@H]3O[C@H]3O[C@H](CN)[C@@H](O)[C@H](O)[C@H]3N)O[C@@H]2CO)[C@H](N)[C@@H](O)[C@@H]1O [FRAMYCETIN] | 125 µg/mL (≈ 203 µM) | 1 µg/mL (≈ 1.63 µM) |  | 64 µg/mL (≈ 104 µM) | 16 µg/mL (≈ 26 µM) | 4 µg/mL (≈ 6.51 µM) | 125 µg/mL (≈ 203 µM) | 2 µg/mL (≈ 3.25 µM) |  |  |  | 
CN[C@H](CC(C)C)C(=O)N[C@H]1C(=O)N[C@@H](CC(N)=O)C(=O)N[C@H]2C(=O)N[C@H]3C(=O)N[C@H](C(=O)N[C@H](C(=O)O)c4cc(O)cc(O)c4-c4cc3ccc4O)[C@H](O)c3ccc(c(Cl)c3)Oc3cc2cc(c3O[C@@H]2O[C@H](CO)[C@@H](O)[C@H](O)[C@H]2O[C@H]2C[C@](C)(N)[C@H](O)[C@H](C)O2)Oc2ccc(cc2Cl)[C@H]1O [VANCOMYCIN] |  |  |  | ≥ 250 µg/mL | 1 µg/mL (≈ 0.69 µM) | ≥ 250 µg/mL | 125 µg/mL (≈ 86.3 µM) | ≥ 250 µg/mL |  |  |  | 
CCn1nnc2c1C(=O)c1ccccc1C2=O |  |  |  |  |  |  |  |  | inactive | inactive | Insoluble | 
NCC[C@H](O)C(=O)N[C@@H]1C[C@H](N)[C@@H](O[C@H]2O[C@H](CN)[C@@H](O)[C@H](O)[C@H]2O)[C@H](O)[C@H]1O[C@H]1O[C@H](CO)[C@@H](O)[C@H](N)[C@H]1O [AMIKACIN] | 16 µg/mL (≈ 27.3 µM) | 0.5 µg/mL (≈ 0.854 µM) | 0.25 µg/mL (≈ 0.427 µM) | 0.25 µg/mL (≈ 0.427 µM) | 32 µg/mL (≈ 54.6 µM) | 1 µg/mL (≈ 1.71 µM) | ≥ 250 µg/mL | 1 µg/mL (≈ 1.71 µM) |  |  |  | 
CCn1n[n+](C)c2c1C(=O)c1ccccc1C2=O.[Cl-] | 1 µg/mL | 1 µg/mL | 16 µg/mL | ≥ 250 µg/mL | ≥ 250 µg/mL | 16 µg/mL | ≥ 250 µg/mL | 32 µg/mL |  |  |  | 
Cn1n[n+](C)c2c1C(=O)c1ccccc1C2=O.[Cl-] | 4 µg/mL | 4 µg/mL | 32 µg/mL | 125 µg/mL | ≥ 250 µg/mL | 32 µg/mL | 125 µg/mL | 64 µg/mL |  |  |  | 
O=C1c2ccccc2C(=O)c2c1nnn2Cc1ccccn1 |  |  |  |  |  |  |  |  | inactive | inactive | Insoluble | 
C[n+]1nn(Cc2ccccc2)c2c1C(=O)c1ccccc1C2=O.[Cl-] | 0.5 µg/mL | 2 µg/mL | 8 µg/mL | 125 µg/mL | ≥ 250 µg/mL | 8 µg/mL | ≥ 250 µg/mL | 8 µg/mL |  |  |  | 
CCCCCCCCCCCCn1n[n+](C)c2c1C(=O)c1ccccc1C2=O.[Cl-] | 0.25 µg/mL | 0.032 µg/mL | 1 µg/mL | 16 µg/mL | 4 µg/mL | 2 µg/mL | 4 µg/mL | 2 µg/mL |  |  |  | 
O=C1c2ccccc2C(=O)c2c1nnn2Cc1ccccc1 |  |  |  |  |  |  |  |  | inactive | inactive | Insoluble | 
CCCCCCCCn1nnc2c1C(=O)c1ccccc1C2=O |  |  |  |  |  |  |  |  | inactive | inactive | Insoluble | 
CC(C)(C)OC(=O)N1CCC(n2nnc3c2C(=O)c2ccccc2C3=O)CC1 |  |  |  |  |  |  |  |  | inactive | inactive | Insoluble | 
NC[C@H]1O[C@H](O[C@H]2[C@H](O)[C@@H](O[C@H]3O[C@H](CO)[C@@H](O)[C@H](N)[C@H]3O)[C@H](N)C[C@@H]2N)[C@H](O)[C@@H](O)[C@@H]1O [KANAMYCIN] | 125 µg/mL (≈ 258 µM) | 1 µg/mL (≈ 2.06 µM) | 1 µg/mL (≈ 2.06 µM) | 125 µg/mL (≈ 258 µM) |  | 2 µg/mL (≈ 4.13 µM) |  | 0.5 µg/mL (≈ 1.03 µM) |  |  |  | 
CCCCn1nnc2c1C(=O)c1ccccc1C2=O |  |  |  |  |  |  |  |  | inactive | inactive | Insoluble | 
CCCCCCCCCCCCn1nnc2c1C(=O)c1ccccc1C2=O |  |  |  |  |  |  |  |  | inactive | inactive | Insoluble | 
CCCCCn1n[n+](C)c2c1C(=O)c1ccccc1C2=O.[Cl-] | 1 µg/mL | 2 µg/mL | 8 µg/mL | ≥ 250 µg/mL | ≥ 250 µg/mL | 8 µg/mL | 125 µg/mL | 32 µg/mL |  |  |  | 
CCCCCn1nnc2c1C(=O)c1ccccc1C2=O |  |  |  |  |  |  |  |  | inactive | inactive | Insoluble | 
CCCCCCCCn1n[n+](C)c2c1C(=O)c1ccccc1C2=O.[Cl-] | 0.5 µg/mL | 0.032 µg/mL | 1 µg/mL | ≥ 250 µg/mL | 125 µg/mL | 8 µg/mL | 125 µg/mL | 8 µg/mL |  |  |  | 
C[n+]1nn(Cc2ccccn2)c2c1C(=O)c1ccccc1C2=O.[Cl-] | 2 µg/mL | 2 µg/mL | 16 µg/mL | ≥ 250 µg/mL | ≥ 250 µg/mL | 16 µg/mL | ≥ 250 µg/mL | 16 µg/mL |  |  |  | 
Cn1nnc2c1C(=O)c1ccccc1C2=O |  |  |  |  |  |  |  |  | inactive | inactive | Insoluble | 
C[n+]1nn(C2CCNCC2)c2c1C(=O)c1ccccc1C2=O.[Cl-] | 2 µg/mL | 2 µg/mL | 16 µg/mL | 64 µg/mL | ≥ 250 µg/mL | 32 µg/mL | ≥ 250 µg/mL | 64 µg/mL |  |  |  | 
hexadecyltrimethylammonium bromide |  |  |  |  |  |  |  |  |  |  |  | MIC (Staphylococcus aureus [12]): 0.5 µg/mL; MIC (Escherichia coli [13]): 1 µg/mL; MIC (Enterococcus faecalis [14]): 2 µg/mL; MIC (Staphylococcus aureus [15]): 2 µg/mL; MIC (Klebsiella pneumoniae [16]): 1 µg/mL; MIC (Pseudomonas aeruginosa [17]): 16 µg/mL; MIC [18]: 1 µg/mL; MIC (Enterococcus faecalis [19]): 4 µg/mL
CCCCCCCCCCCCCCCCn1nnc2c1C(=O)c1ccccc1C2=O |  |  |  |  |  |  |  |  | inactive | inactive | Insoluble | 
